{"source": "patent US20130184316A1", "about": "“METHODS FOR DIAGNOSING AND TREATING CONCUSSIVE DISORDERS” (priority 2010, published 2013)", "key": {"subject with PCS [1]": {"test_system": "subject with PCS", "assay": "Balance and mobility assessed by Hi-Mat test", "format": "in vivo, human", "description": "(§1) A single subject, prospective, double blind, placebo controlled trial of 4AP was then conducted in this individual. IRB approvals were obtained from all participating institutions and Subject gave written informed consent for all parts of the study. After a 4-week medication washout period, the Subject was randomly assigned a week's course of placebo, followed by a weeklong medication washout period, followed by another week on 4-AP (10 mg twice daily). Based on the medication half-life, a one week washout period was presumed to be sufficient. Subject and assessors were blinded to treatment allocation.\n(§2) Measurements conducted at identical times at baseline and on each of the subsequent 3 weeks of the study included: • Balance and mobility assessed by Hi-Mat test (Arch. Phys. Med. Rehabil. 2006, 87(3), 437-442; hereby incorporated by reference in its entirety). • Subjective symptom assessment using the Rivermead Post-Concussion Questionnaire (Clin. Rehabil. 2005, 19(8), 878-887; hereby incorporated by reference in its entirety). • Neuropsychological assessment, consisting of the digit span and cancellation tests from the Wechsler Adult Intelligence Scale, 4th edition (Coalson, D. L., Engi-Raiford, S. Wechsler Adult Intelligence Scale, 4th Ed., in Technical and Interpretive Manual, 4th Ed., San Antonio: Pearson (2008); hereby incorporated by reference in its entirety), the California Verbal Learning Test II (CVLT) (Delis, D. C., Kramer, J. H., Kaplan, E., Ober, B. A. in CVLT-II Manual, San Antonio: The Psychological Corporation (2000); hereby incorporated by reference in its entirety), the Verbal Fluency Test (Connors Continuous Performance Test Computer II Program Version 5 Users Manual, Toronto: Multi-Health Systems, Inc. (2002); hereby incorporated by reference in its entirety), and the Connors Continuous Performance Test (J. Nervous Ment. Dis. 1985, 173(6), 353-357; hereby incorporated by reference in its entirety). • Videonystagmography (VNG) and rotary chair (RC) vestibular testing […]"}, "subject with PCS [2]": {"test_system": "subject with PCS", "assay": "Cancellation test, Wechsler Adult Intelligence Scale 4th edition", "format": "in vivo, human", "description": "as §1, §2"}, "subject with PCS [3]": {"test_system": "subject with PCS", "assay": "California Verbal Learning Test II (CVLT)", "format": "in vivo, human", "description": "as §1, §2"}, "subject with PCS [4]": {"test_system": "subject with PCS", "assay": "Abbreviated Abnormal Involuntary Movement Scale (AIMS), blinded raters of video recordings", "format": "in vivo, human", "text": "During testing sessions, study personnel noted relapse of paroxysmal grimacing, weakness, sialorrhea, slurred speech, and slowed responses that the Subject had experienced prior to starting 4AP. In an effort to corroborate the presence of abnormal movements, video recordings of identical testing segments were reviewed by raters, physical, occupational, and speech therapists all with experience working with TBI. Raters were blinded to subject history and study variables. Absent any established rating scales for the unusual phenomenon observed, an abbreviated version of the Abnormal Involuntary Movement Scale (AIMS) was used (Prog. Brain Res. 2007, 161, 327-338; hereby incorporated by reference in its entirety)."}, "subject with PCS [5]": {"test_system": "subject with PCS", "assay": "Videonystagmography (VNG)", "format": "in vivo, human", "description": "as §1\nMeasurements conducted at identical times at baseline and on each of the subsequent 3 weeks of the study included: • Balance and mobility assessed by Hi-Mat test (Arch. Phys. Med. Rehabil. 2006, 87(3), 437-442; hereby incorporated by reference in its entirety). • Subjective symptom assessment using the Rivermead Post-Concussion Questionnaire (Clin. Rehabil. 2005, 19(8), 878-887; hereby incorporated by reference in its entirety). • Neuropsychological assessment, consisting of the digit span and cancellation tests from the Wechsler Adult Intelligence Scale, 4th edition (Coalson, D. L., Engi-Raiford, S. Wechsler Adult Intelligence Scale, 4th Ed., in Technical and Interpretive Manual, 4th Ed., San Antonio: Pearson (2008); hereby incorporated by reference in its entirety), the California Verbal Learning Test II (CVLT) (Delis, D. C., Kramer, J. H., Kaplan, E., Ober, B. A. in CVLT-II Manual, San Antonio: The Psychological Corporation (2000); hereby incorporated by reference in its entirety), the Verbal Fluency Test (Connors Continuous Performance Test Computer II Program Version 5 Users Manual, Toronto: Multi-Health Systems, Inc. (2002); hereby incorporated by reference in its entirety), and the Connors Continuous Performance Test (J. Nervous Ment. Dis. 1985, 173(6), 353-357; hereby incorporated by reference in its entirety). • Videonystagmography (VNG) and rotary chair (RC) vestibular testing\nBased on the observation of significant central findings on videonystagmography and rater-observed reduction in abnormal movements while on the active medication, the Subject was asked to return for 2 additional rounds of open-label testing, 5 and 9 weeks after conclusion of the formal study. The Subject resumed taking 4AP 10 mg twice daily immediately after the conclusion of the blinded testing."}, "subject with PCS [6]": {"test_system": "subject with PCS", "assay": "Single subject double blind placebo controlled trial of 4AP with open-label rounds, overall findings", "format": "in vivo, human", "description": "as §1, §2"}, "subject with PCS [7]": {"test_system": "subject with PCS", "assay": "Neuro-optometric evaluation", "format": "in vivo, human", "conditions": "following treatment of 4AP"}, "subject with PCS [8]": {"test_system": "subject with PCS", "assay": "Neurofeedback evaluation", "format": "in vivo, human", "conditions": "following treatment of 4AP"}, "[9]": {"test_system": "patients with type-2 episodic ataxia (EA2)", "conditions": "literature reports; cited from earlier work"}, "downbeat nystagmus (DBN)": {"test_system": "downbeat nystagmus (DBN)", "conditions": "literature reports; cited from earlier work"}, "demyelinated axons": {"test_system": "demyelinated axons", "conditions": "experimental and clinical settings, literature; cited from earlier work"}, "[10]": {"test_system": "cerebellar Purkinje cells", "conditions": "in vitro, literature; cited from earlier work"}, "[11]": {"test_system": "EA2 mutant Purkinje cells", "conditions": "literature (J. Neurosci. 2010), cited from earlier work"}, "[12]": {"conditions": "session 5 1st Open: open-label 4AP 10 mg twice daily, 5 weeks after formal study"}, "[13]": {"conditions": "session 6 2nd Open: open-label 4AP 10 mg twice daily, 9 weeks after formal study"}, "[14]": {"conditions": "two open phases, extended medication use"}}}
{"smiles": "Nc1ccncc1", "note": "[4-AP, 4-Amino pyridine]", "values": [{"measurement": "HiMat score", "setting": "subject with PCS [1]; session 4 Active: blinded, one week on 4-AP 10 mg twice daily, baseline 18, placebo 28, washout 28", "result": 31}, {"measurement": "HiMat score", "setting": "subject with PCS [1]; session 5 1st Open: open-label 4AP 10 mg twice daily, 5 weeks after conclusion of the formal study", "result": 32}, {"measurement": "HiMat score", "setting": "subject with PCS [1]; session 6 2nd Open: open-label 4AP 10 mg twice daily, 9 weeks after conclusion of the formal study", "result": 50}, {"measurement": "Cancellation task percentile", "setting": "subject with PCS [2]; session 4 Active: blinded, one week on 4-AP 10 mg twice daily, baseline 37, placebo 37, washout 37", "result": 37, "unit": "percentile"}, {"measurement": "Cancellation task percentile", "setting": "subject with PCS [2]; [12]", "result": 75, "unit": "percentile"}, {"measurement": "Cancellation task percentile", "setting": "subject with PCS [2]; [13]", "result": 84, "unit": "percentile"}, {"measurement": "CVLT-II immediate, percentile", "setting": "subject with PCS [3]; session 4 Active: blinded, one week on 4-AP 10 mg twice daily, baseline 27, placebo 21, washout 65", "result": 18, "unit": "percentile"}, {"measurement": "CVLT-II immediate, percentile", "setting": "subject with PCS [3]; [12]", "result": 69, "unit": "percentile"}, {"measurement": "CVLT-II immediate, percentile", "setting": "subject with PCS [3]; [13]", "result": 93, "unit": "percentile"}, {"measurement": "AIMS, active medication phase compared to placebo and washout conditions", "setting": "subject with PCS [4]; blinded phase, 4-AP 10 mg twice daily for one week", "result": "improvement"}, {"measurement": "AIMS Subscale", "setting": "subject with PCS [4]; session 4 Active: blinded, one week on 4-AP 10 mg twice daily, placebo 15.0, washout 9.5", "result": 4.5}, {"measurement": "Head left positioning, left beating non-fatiguing nystagmus", "setting": "subject with PCS [5]; test 4 (Active, 4-AP 10 mg twice daily), tests 1-3: 6, 2, 2", "result": 4, "unit": "degrees/second"}, {"measurement": "Head left position, left beating non-fatiguing nystagmus", "setting": "subject with PCS [5]; test 5 (1st open-label round, 4AP 10 mg twice daily)", "result": 2, "unit": "degrees/second"}, {"measurement": "Delay of onset of left beating nystagmus in left dix hallpike position", "setting": "subject with PCS [5]; test 6 (2nd open-label round, 4AP 10 mg twice daily), immediate on tests 1-4", "result": 50, "unit": "s"}, {"measurement": "Down beating nystagmus with head tilted down", "setting": "subject with PCS [5]; tests 1-4, including active phase", "result": "present"}, {"measurement": "Balance/mobility, symptoms and neuropsychological evaluations", "setting": "subject with PCS [6]; active phase compared with the other blinded phases (baseline, placebo, washout)", "result": "similar"}, {"measurement": "Balance/mobility and subjective symptoms", "setting": "subject with PCS [6]; [14]", "result": "improvement"}, {"measurement": "Cancellation and CVLT: cognitive processing speed and auditory memory", "setting": "subject with PCS [6]; [14]", "result": "improved"}, {"measurement": "Overall neuro-optometric functioning", "setting": "subject with PCS [7]", "result": "unexpectedly improved"}, {"measurement": "Neurofeedback parameters (neurosynchronization, restoration of brain activity)", "setting": "subject with PCS [8]", "result": "dramatic and unexpected improvements"}, {"measurement": "Symptoms of EA2 (including downbeat nystagmus)", "setting": "[9]", "result": "both relieved and prevented"}, {"measurement": "Downbeat nystagmus (DBN)", "setting": "downbeat nystagmus (DBN)", "result": "relieve downbeat nystagmus"}, {"measurement": "Conduction in demyelinated axons", "setting": "demyelinated axons", "result": "improve conduction"}, {"measurement": "Excitability of cerebellar Purkinje cells", "setting": "[10]", "result": "increase the excitability"}, {"measurement": "Purkinje cell excitability, spontaneous activity or firing rate", "setting": "[11]; models of episodic ataxia", "result": "does not increase"}, {"measurement": "Functional consequence of treatment in EA2 mutant Purkinje cells", "setting": "[11]; via blockage of potassium channels", "result": "restoration of the precision of pacemaking"}]}
